Patent EP1247803A2, “Indolinone compounds suitable for modulation of protein kinases” (Sugen, Inc., priority 1996, dated 1998)

Experiments:
FLK-1 receptor = target: T1, FLK-1 receptor (Mus musculus, UniProt P35918); experiment: FLK-1 ELISA (kinase activity of the FLK-1 receptor in FLK-1/NIH3T3 cells, VEGF stimulated); format: cell-based; parameters: concentration or dose not given beside the values
T1 construct: expressed in transfected cells; host or cells: NIH3T3 C7#3
Method in brief: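 NIH3T3 C7#3 cells expressing FLK-1 were seeded at 25.000 cells/well, serum-starved overnight in 0.1% FBS, then treated with compound for two hours at 37°C (final DMSO 0.5%) before VEGF stimulation. Receptor was captured on anti-rabbit IgG-coated ELISA plates bearing affinity-purified anti-FLK-1 antiserum.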

PDGF-R = PDGF-R (Homo sapiens, UniProt P09619); experiment: PDGF-R ELISA; format: cell-based
Source text: A PDGF-R ELISA is described in International Patent Publication No. WO 96/40116, published December 19, 1996 by Tang et al.

Sequence of PDGF-R (P09619 33-1106, species assumed): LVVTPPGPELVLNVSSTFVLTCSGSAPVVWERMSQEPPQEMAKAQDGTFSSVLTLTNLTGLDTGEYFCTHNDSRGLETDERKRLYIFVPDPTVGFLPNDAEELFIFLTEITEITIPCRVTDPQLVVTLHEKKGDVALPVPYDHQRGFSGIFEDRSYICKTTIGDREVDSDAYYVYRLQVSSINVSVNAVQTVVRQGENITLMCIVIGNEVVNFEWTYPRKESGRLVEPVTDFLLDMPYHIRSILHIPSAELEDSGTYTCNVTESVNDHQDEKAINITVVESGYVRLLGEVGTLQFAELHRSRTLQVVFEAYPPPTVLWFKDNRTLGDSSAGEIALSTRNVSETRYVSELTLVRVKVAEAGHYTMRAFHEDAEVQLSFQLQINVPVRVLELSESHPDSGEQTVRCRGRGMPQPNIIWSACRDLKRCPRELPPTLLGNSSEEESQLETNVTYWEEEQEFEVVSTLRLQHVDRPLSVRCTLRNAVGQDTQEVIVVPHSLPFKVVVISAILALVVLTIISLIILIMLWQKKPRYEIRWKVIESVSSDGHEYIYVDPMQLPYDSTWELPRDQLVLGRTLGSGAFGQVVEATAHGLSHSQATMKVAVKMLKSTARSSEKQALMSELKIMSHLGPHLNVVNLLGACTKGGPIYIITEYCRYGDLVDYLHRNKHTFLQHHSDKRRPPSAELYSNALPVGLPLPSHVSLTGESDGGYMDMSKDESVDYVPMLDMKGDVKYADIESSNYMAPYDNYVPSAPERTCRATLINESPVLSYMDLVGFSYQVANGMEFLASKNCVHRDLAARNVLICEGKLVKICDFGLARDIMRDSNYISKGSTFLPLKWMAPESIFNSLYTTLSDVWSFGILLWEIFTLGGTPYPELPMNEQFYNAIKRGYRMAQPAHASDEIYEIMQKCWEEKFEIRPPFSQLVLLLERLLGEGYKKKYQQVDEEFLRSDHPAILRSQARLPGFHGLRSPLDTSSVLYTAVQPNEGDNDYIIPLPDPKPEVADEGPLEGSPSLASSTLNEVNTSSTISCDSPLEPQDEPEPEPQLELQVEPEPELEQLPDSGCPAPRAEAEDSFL
T1 sequence (P35918 20-1345): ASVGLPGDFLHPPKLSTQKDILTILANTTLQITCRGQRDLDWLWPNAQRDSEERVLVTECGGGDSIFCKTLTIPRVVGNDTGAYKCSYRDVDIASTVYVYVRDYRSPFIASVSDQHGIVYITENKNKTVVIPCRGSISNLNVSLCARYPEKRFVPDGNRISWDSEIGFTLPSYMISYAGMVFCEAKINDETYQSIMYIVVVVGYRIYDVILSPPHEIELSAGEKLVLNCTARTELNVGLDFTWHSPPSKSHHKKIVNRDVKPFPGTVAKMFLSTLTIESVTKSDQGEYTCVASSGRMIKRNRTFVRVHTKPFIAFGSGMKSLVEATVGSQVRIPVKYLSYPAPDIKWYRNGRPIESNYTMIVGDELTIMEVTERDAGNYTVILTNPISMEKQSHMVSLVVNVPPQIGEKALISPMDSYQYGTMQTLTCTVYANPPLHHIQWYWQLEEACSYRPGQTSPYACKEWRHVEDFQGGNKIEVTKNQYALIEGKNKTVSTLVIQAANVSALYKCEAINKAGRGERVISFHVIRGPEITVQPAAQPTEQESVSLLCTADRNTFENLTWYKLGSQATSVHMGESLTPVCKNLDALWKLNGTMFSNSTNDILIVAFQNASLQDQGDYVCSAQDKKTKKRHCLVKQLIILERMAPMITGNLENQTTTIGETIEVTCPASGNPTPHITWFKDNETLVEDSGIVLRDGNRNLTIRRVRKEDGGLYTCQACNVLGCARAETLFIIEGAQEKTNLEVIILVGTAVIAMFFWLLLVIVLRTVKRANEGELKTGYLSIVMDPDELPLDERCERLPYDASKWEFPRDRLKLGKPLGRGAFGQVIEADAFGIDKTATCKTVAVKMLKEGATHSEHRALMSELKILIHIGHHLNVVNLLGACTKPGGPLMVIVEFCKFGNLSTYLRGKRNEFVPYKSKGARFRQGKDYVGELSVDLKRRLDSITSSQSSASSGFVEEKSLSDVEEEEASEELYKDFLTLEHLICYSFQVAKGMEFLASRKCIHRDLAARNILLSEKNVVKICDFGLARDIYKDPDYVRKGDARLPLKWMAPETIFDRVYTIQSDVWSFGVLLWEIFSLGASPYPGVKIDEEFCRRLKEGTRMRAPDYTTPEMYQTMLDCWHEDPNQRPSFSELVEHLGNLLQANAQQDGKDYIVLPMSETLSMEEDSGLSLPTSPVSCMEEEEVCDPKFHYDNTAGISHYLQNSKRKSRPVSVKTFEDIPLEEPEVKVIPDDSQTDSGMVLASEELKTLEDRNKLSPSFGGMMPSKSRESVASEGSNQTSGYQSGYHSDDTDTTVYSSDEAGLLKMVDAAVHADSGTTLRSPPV

| Compound | Fik Kinase %Inhibition (FLK-1 receptor) | PDGF Kinase %Inhibition (PDGF-R) |
| --- | --- | --- |
| CCN(CC)c1ccc(C=C2C(=O)Nc3ccc(S(=O)(=O)NC)cc32)cc1 [10727/D02] | 3.2% | 5.7% |
| Cc1cn(C)cc1C=C1C(=O)Nc2ccc(CCCl)cc21 [10726/G06] | 7.0% | -26.6% |
| COc1cccc(C=C2C(=O)Nc3ccc(Br)c(C)c32)c1OC [10727/C11] | -25.6% | 22.4% |
| O=C1Nc2c(Br)cc(Br)cc2C1=Cc1c[nH]c2ccccc12 [10717/A06] | -10.8% |  |
| CCc1ccc(C=C2C(=O)Nc3ccc(Br)c(C)c32)s1 [10726/C10] | 5.5% | 16.4% |
| Cc1c(Br)ccc2c1C(=Cc1cc(Cl)cc(Br)c1O)C(=O)N2 [10727/C04] | 0.2% | 23.2% |
| Cc1c(Br)ccc2c1C(=C1C(=O)Nc3ccc(F)cc31)C(=O)N2 [10726/C08] | 3.4% | 21.4% |
| N#Cc1cccc(C=C2C(=O)Nc3ccc(I)cc32)c1 [10727/B08] | 4.0% | 14.4% |
| Cc1c(Br)ccc2c1C(=Cc1cc(O)ccc1O)C(=O)N2 [10727/C10] | -35.3% | 45.7% |
| CCN(CC)c1ccc(C=C2C(=O)Nc3c(Br)cc(Br)cc32)cc1 [10727/A02] | -1.3% | -10.3% |
| COc1ccc(C=C2C(=O)Nc3ccc(CCCl)cc32)cc1 [10726/G11] | 9.1% | -7.7% |
| O=C1Nc2ccc(CCCl)cc2C1=Cc1ccc[nH]1 [10717/G09] | -29.7% |  |
| CCOC(=O)c1[nH]c(C=C2C(=O)Nc3ccc(CCCl)cc32)c(C(=O)OC)c1C [10726/G03] | 11.3% | 4.3% |
| O=C1Nc2ccc(S(=O)(=O)Nc3ccc(C(F)(F)F)cc3)cc2C1=Cc1cc(O)c2c(c1O)CCCC2 [10726/E07] | -40.0% | -12.1% |
| Cc1cc(C=C2C(=O)Nc3ccc(S(=O)(=O)Nc4ccc(C(F)(F)F)cc4)cc32)cc(C(C)(C)C)c1O [10726/E04] | 8.1% | 12.6% |
| Cc1c(Br)ccc2c1C(=Cc1ccc(C#N)cc1)C(=O)N2 [10727/C09] | -13.5% | 21.7% |
| Cc1c(Br)ccc2c1C(=Cc1coc3ccccc3c1=O)C(=O)N2 [10727/C07] | 15.9% | 13.0% |
| CNS(=O)(=O)c1ccc2c(c1)C(=Cc1cc(C)c(O)c(C(C)(C)C)c1)C(=O)N2 [10726/D04] | 7.8% | 34.1% |
| O=C1Nc2ccc(CCCl)cc2C1=Cc1ccc(F)cc1 [10717/G05] | 5.3% |  |
| Cc1ccc(C=C2C(=O)Nc3ccc(CCCl)cc32)s1 [10717/G07] | -17.0% |  |
| N#Cc1ccc(C=C2C(=O)Nc3c(Br)cc(Br)cc32)cc1 [10727/A09] | -16.8% | 16.6% |

| Compound | Fik Kinase %Inhibition (FLK-1 receptor) | PDGF Kinase %Inhibition (PDGF-R) |
| --- | --- | --- |
| COc1ccc(C=C2C(=O)Nc3ccc(Br)c(C)c32)cc1 [10726/C11] | -32.2% | 51.1% |
| CNS(=O)(=O)c1ccc2c(c1)C(=Cc1cn(C)cc1C)C(=O)N2 [10726/D06] | 16.3% | 28.4% |
| CCc1ccc(C=C2C(=O)Nc3ccc(S(=O)(=O)Nc4ccc(C(F)(F)F)cc4)cc32)s1 [10726/E10] | 16.5% | 37.9% |
| O=C1Nc2ccc(CCCl)cc2C1=Cc1ccc(Br)cc1 [10717/G08] | 1.9% |  |
| COc1cccc(C=C2C(=O)Nc3c(Br)cc(Br)cc32)c1OC [10727/A11] | 7.4% | 10.8% |
| N#Cc1cccc(C=C2C(=O)Nc3c(Br)cc(Br)cc32)c1 [10727/A08] | -0.6% | 15.2% |
| Cc1c(Br)ccc2c1C(=Cc1cc3c(cc1Cl)OCO3)C(=O)N2 [10727/C06] | 5.2% | 12.3% |
| O=C1Nc2ccc(S(=O)(=O)N3CCOCC3)cc2C1=Cc1cc(O)c2c(c1O)CCCC2 [10726/F07] | 9.6% | -99.4% |
| O=C1Nc2ccc(S(=O)(=O)N3CCOCC3)cc2C1=Cc1ccc(Br)o1 [10726/F05] | 8.9% | -17.8% |
| Cc1cn(C)cc1C=C1C(=O)Nc2ccc(S(=O)(=O)Nc3ccc(C(F)(F)F)cc3)cc21 [10726/E06] | 6.2% | 41.7% |
| N#Cc1ccc(C=C2C(=O)Nc3ccc(I)cc32)cc1 [10727/B09] | 6.7% | 18.1% |
| Cn1cccc1C=C1C(=O)Nc2ccc(CCCl)cc21 [10717/G04] | 0.8% |  |
| COc1ccc(C=C2C(=O)Nc3ccc(S(=O)(=O)N4CCOCC4)cc32)cc1 [10726/F11] | 13.6% | 25.2% |
| Cc1cc(C=C2C(=O)Nc3ccc(S(=O)(=O)N4CCOCC4)cc32)cc(C(C)(C)C)c1O [10726/F04] | 31.5% | 18.3% |
| O=C1Nc2ccccc2C1=C1C(=O)Nc2ccc(CCCl)cc21 [10726/G09] | 3.6% | 13.2% |
| Cc1c(Br)ccc2c1C(=C1C(=O)Nc3ccccc31)C(=O)N2 [10726/C09] | 12.9% | 26.5% |
| O=C1Nc2c(Br)cc(Br)cc2C1=Cc1coc2ccccc2c1=O [10727/A07] | -10.7% | 12.3% |
| CCc1cc(CC)c(C=C2C(=O)Nc3ccc(S(=O)(=O)NC)cc32)[nH]1 [10727/D03] | 3.1% | -3.0% |
| Cc1cc(C=C2C(=O)Nc3ccc(CCCl)cc32)cc(C(C)(C)C)c1O [10726/G04] | 9.7% | 14.5% |
| CCOC(=O)c1[nH]c(C=C2C(=O)Nc3ccc(S(=O)(=O)Nc4ccc(C(F)(F)F)cc4)cc32)c(C(=O)OC)c1C [10726/E03] | -5.5% | 20.2% |
| O=C1Nc2c(Br)cc(Br)cc2C1=Cc1cc(O)ccc1O [10727/A10] | -6.4% | 18.1% |

| Compound | Fik Kinase %Inhibition (FLK-1 receptor) | PDGF Kinase %Inhibition (PDGF-R) |
| --- | --- | --- |
| O=C1Nc2ccc(F)cc2C1=C1C(=O)Nc2ccc(CCCl)cc21 [10726/G08] | 2.9% | 14.5% |
| CCN(CC)c1ccc(C=C2C(=O)Nc3ccc(I)cc32)cc1 [10727/B02] | 2.4% | -10.3% |
| CNS(=O)(=O)c1ccc2c(c1)C(=C1C(=O)Nc3ccc(F)cc31)C(=O)N2 [10726/D08] | 12.1% | 22.1% |
| CCc1ccc(C=C2C(=O)Nc3ccc(CCCl)cc32)s1 [10726/G10] | 10.5% | -7.0% |
| O=C1Nc2ccc(I)cc2C1=Cc1ccccc1Sc1ccc(Cl)cc1 [10727/B05] | 10.5% | 9.4% |
| O=C1Nc2ccccc2C1=C1C(=O)Nc2ccc(S(=O)(=O)Nc3ccc(C(F)(F)F)cc3)cc21 [10726/E09] | 9.9% | 34.7% |
| O=C1Nc2c(Br)cc(Br)cc2C1=Cc1cc2c(cc1Cl)OCO2 [10727/A06] | -17.1% | 13.7% |
| CNS(=O)(=O)c1ccc2c(c1)C(=Cc1cc(O)c3c(c1O)CCCC3)C(=O)N2 [10726/D07] | -26.9% | -81.0% |
| CCc1ccc(C=C2C(=O)Nc3ccc(S(=O)(=O)NC)cc32)s1 [10726/D10] | 14.7% | 32.2% |
| Cc1c(Br)ccc2c1C(=Cc1cccc(C#N)c1)C(=O)N2 [10727/C08] | 4.9% | 23.2% |
| O=C1Nc2ccc(F)cc2C1=C1C(=O)Nc2ccc(S(=O)(=O)Nc3ccc(C(F)(F)F)cc3)cc21 [10726/E08] | 4.1% | 34.1% |
| COc1cccc(O)c1C=C1C(=O)Nc2ccc(CCCl)cc21 [10717/G10] | 4.8% |  |
| CCOC(=O)c1[nH]c(C=C2C(=O)Nc3ccc(S(=O)(=O)NC)cc32)c(C(=O)OC)c1C [10726/D03] | 21.6% | 21.4% |
| Cc1c(Br)ccc2c1C(=Cc1ccccc1Sc1ccc(Cl)cc1)C(=O)N2 [10727/C05] | 13.7% | 7.9% |
| O=C1Nc2ccc(I)cc2C1=Cc1cc2c(cc1Cl)OCO2 [10727/B06] | -3.9% | 6.4% |
| O=C1Nc2c(Br)cc(Br)cc2C1=Cc1cc(Cl)cc(Br)c1O [10727/A04] | -4.6% | 12.3% |
| COc1ccc(C=C2C(=O)Nc3ccc(S(=O)(=O)Nc4ccc(C(F)(F)F)cc4)cc32)cc1 [10726/E11] | 16.2% | 30.3% |
| CCN(CC)c1ccc(C=C2C(=O)Nc3ccc(Br)c(C)c32)cc1 [10727/C02] | -2.0% | -12.5% |
| CCc1cc(CC)c(C=C2C(=O)Nc3ccc(I)cc32)[nH]1 [10727/B03] | -13.4% | -7.4% |
| COc1cccc(C=C2C(=O)Nc3ccc(I)cc32)c1OC [10727/B11] | 16.8% | 15.9% |
| O=C1Nc2ccc(CCCl)cc2C1=Cc1c[nH]c2ccccc12 [10717/G06] | 4.3% |  |
